IC50 and EC50 data for four molecules are collected here from patent US20120184548A1, “CARBOXYLIC ACID ARYL AMIDES” (priority 2011, published 2012).

One assay has as its target T1, Human DYRK1A (Homo sapiens, UniProt Q13627).
T1 construct: purchased Invitrogen PV3997
Nature of the assay: DYRK1A Kinase TR-FRET (IMAP-Tb) Assay. Particulars: TR-FRET; ATP 70 μM; 37° C. for 60 minutes; averages of multiple runs; read-out: Enzyme IC50 DYRK1A. The format is biochemical.

Assay [1] deals with SW620 human colon cancer cells. Nature of the assay: SW620 Cell Viability Assay (CellTiter-Glo). It is filed as cell-based. The following applies: SW-620, 96 h, 4 days incubation, read-out: Cellular EC50 SW620. How it is done:
1. Cell Plate Preparation: SW620 human colon cancer cells (known to express DYRK1B), obtained from ATCC, were seeded into 96-well plates at […] in 50 μL of media. • Harvested the required number of cells (counts & viability determined by Guava Viacount). • Centrifuge cells to pellet and removed supernant. • Resuspended in growth media (50 μL/well) & pipetted thoroughly to break up clumps. • Setup for ˜100 wells/plate, therefore, VT=5 mL/plate @ 1.2×10^5 cells/mL. 1A. Some cells (S-) were allowed to attach for 24 hrs, serum starved for 48 hrs, and then followed with treatments of test compound.
Test Compound solution was prepared in regular corresponding media supplemented with serum
2. Test Compound Preparation: Test compounds were solubilized in either DMSO or media and prepared at various stock concentrations. • All compounds were incubated at 37° C. for 30 minutes and vortexed. • (5 mM stocks of test compound were prepared for non-soluble drugs)
3. Test Compound Plate Preparation:
• The 10 mM test compound stock was diluted to a concentration of 100× the final Cmax concentration. • Then the test compound stock is diluted 50-fold in media and/or second test compound for a final Cmax concentration in the test compound plate. • The Cmax in the test compound plate (2% DMSO) is 2-fold higher than the final Cmax in the cell plate (60 uL titrations were 1:3). 4. Viability Assay: This assay was performed as follows: • Transfer 50 μL of test compound solution per well from the test compound plate onto the cell plate prepared in Step #1. • Mix the plate with treated cells by pipetting up and down three times with 200 μL multi-channel pipet. • Incubate the cells in 5% CO2 incubator @ 37° C. for 4 days. • Run the CellTiter-Glo™ Luminescent Cell Viability Assay. The results of this assay, given as EC50 values, indicate the concentration of test compound that inhibits tumor cell proliferation by 50%.

Another assay addresses T2, Human DYRK1B (Homo sapiens, UniProt Q9Y463).
T2 construct: purchased Invitrogen PR8350B (former PV4649)
The assay is described as follows: DYRK1B Kinase TR-FRET (IMAP-Tb) Assay. It is filed as biochemical. The following applies: TR-FRET; ATP 70 μM; 37° C. for 60 minutes; averages of multiple runs; read-out: Enzyme IC50 DYRK1B.

T2 sequence (Q9Y463 whole entry): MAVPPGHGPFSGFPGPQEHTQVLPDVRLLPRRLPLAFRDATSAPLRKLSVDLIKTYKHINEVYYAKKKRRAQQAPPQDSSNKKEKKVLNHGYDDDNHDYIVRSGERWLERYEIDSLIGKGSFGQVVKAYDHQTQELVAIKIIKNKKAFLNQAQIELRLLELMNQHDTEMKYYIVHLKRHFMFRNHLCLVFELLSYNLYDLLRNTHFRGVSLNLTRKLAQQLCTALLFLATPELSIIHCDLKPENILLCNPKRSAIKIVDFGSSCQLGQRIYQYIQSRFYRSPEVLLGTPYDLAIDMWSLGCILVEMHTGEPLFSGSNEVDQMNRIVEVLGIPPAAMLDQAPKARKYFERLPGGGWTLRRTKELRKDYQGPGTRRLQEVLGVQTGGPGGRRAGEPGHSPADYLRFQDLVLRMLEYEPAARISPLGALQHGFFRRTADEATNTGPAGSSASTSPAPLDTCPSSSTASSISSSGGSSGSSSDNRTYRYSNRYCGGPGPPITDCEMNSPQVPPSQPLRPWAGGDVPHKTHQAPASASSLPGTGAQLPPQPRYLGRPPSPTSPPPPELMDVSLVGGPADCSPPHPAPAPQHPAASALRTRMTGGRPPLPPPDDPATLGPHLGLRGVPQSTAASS

Usually IC50 stands for the concentration that gives 50% inhibition. One may read the EC50 as the midpoint of the concentration-response curve. Consider `COCCOc1cc2cc(C(=O)Nc3cc(C(=O)NC(CCN)c4ccccc4)ccc3Cl)c(=O)[nH]c2cc1OC` (stereo not drawn) [Example 61, N-(5-(3-Amino-1-phenylpropylcarbamoyl)-2-chlorophenyl)-7-methoxy-6-(2-methoxyethoxy)-2-oxo-1,2-dihydroquinoline-3-carboxamide], for which the 50% inhibitory concentration (IC50) at Human DYRK1A is 15.7 nM; on Human DYRK1B, 11.5 nM. Also, the EC50 in assay [1] is 470 nM.

On to `COCCOc1cc2cc(C(=O)Nc3cc(C(=O)OC)ccc3Cl)c(=O)[nH]c2cc1OC` [Example 53, Methyl 4-chloro-3-(7-methoxy-6-(2-methoxyethoxy)-2-oxo-1,2-dihydroquinoline-3-carboxamido)benzoate], for which the values for the IC50 on Human DYRK1A and on Human DYRK1B were 245 nM and 115 nM, respectively. In addition, in assay [1], the EC50 was more than 10000 nM.

Take `COCCOc1cc2cc(C(=O)Nc3cc(C(=O)NCc4cccc(Cl)c4)ccc3Cl)c(=O)[nH]c2cc1OC` [Example 55, N-(2-Chloro-5-(3-chlorobenzylcarbamoyl)phenyl)-7-methoxy-6-(2-methoxyethoxy)-2-oxo-1,2-dihydroquinoline-3-carboxamide]: the IC50 was 48.9 nM at Human DYRK1A and 37.3 nM at Human DYRK1B. The EC50 in assay [1] came to 129 nM.

As for `COCCOc1cc2cc(C(=O)Nc3cc(C(=O)NC(CN)c4cccc(Cl)c4)ccc3Cl)c(=O)[nH]c2cc1OC` (stereo not drawn) [Example 60, N-(5-(2-Amino-1-(3-chlorophenyl)ethylcarbamoyl)-2-chlorophenyl)-7-methoxy-6-(2-methoxyethoxy)-2-oxo-1,2-dihydroquinoline-3-carboxamide], the IC50 on Human DYRK1A turned out to be 14.3 nM; on Human DYRK1B, 21.7 nM. Besides, in assay [1], the EC50 was determined as 200 nM.
